Source: ChEMBL document CHEMBL5150022, “Small Molecule Inhibitors of Lymphocyte Perforin as Focused Immunosuppressants for Infection and Autoimmunity” (J Med Chem, 2022)

Key:
[1] = target: Perforin-1 (Mus musculus) (UniProt P10820); assay: Inhibition of recombinant Perforin-1 (mouse)
[2] = target: Perforin-1 (Mus musculus) (UniProt P10820); assay: Inhibition of Perforin-1 in human Jurkat cells

Chain of Perforin-1 (Mus musculus) (P10820 whole entry, looked up): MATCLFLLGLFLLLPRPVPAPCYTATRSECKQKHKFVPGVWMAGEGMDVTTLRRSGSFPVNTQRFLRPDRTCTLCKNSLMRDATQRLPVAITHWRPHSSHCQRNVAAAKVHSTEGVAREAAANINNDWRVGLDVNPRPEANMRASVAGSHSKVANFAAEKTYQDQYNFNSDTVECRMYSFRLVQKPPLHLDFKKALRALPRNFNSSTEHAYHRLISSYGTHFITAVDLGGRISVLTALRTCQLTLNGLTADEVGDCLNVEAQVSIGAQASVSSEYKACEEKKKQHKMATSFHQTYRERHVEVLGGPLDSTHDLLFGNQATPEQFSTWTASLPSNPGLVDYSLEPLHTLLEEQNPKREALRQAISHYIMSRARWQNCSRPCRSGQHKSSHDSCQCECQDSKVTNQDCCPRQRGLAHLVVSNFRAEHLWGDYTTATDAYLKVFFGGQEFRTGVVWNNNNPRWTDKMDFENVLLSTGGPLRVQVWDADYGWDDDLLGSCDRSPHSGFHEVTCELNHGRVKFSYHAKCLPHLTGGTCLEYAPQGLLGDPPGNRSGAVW

Row | SMILES | IC50 [1] [µM] | IC50 [2] [µM]
1 | O=C1NCCc2ccc(-c3ccc(-c4cncc(NS(=O)(=O)c5ccc(F)cc5F)c4)s3)cc21 | > 20 | –
2 | O=C1NCCc2cc(-c3ccc(-c4cncc(NS(=O)(=O)c5ccc(F)cc5F)c4)s3)ccc21 | > 20 | –
3 | CN1CCc2cc(-c3ccc(-c4cncc(NS(=O)(=O)c5ccc(F)cc5F)c4)s3)ccc2C1=O | > 20 | –
4 | Cc1ccc2c(c1)C(c1ccc(-c3cncc(NS(=O)(=O)c4ccc(F)cc4F)c3)s1)N(C)C2=O (stereo not given) | > 20 | –
5 | Cc1cc2c(c(=S)[nH]1)C(=O)O/C2=C\c1ccc(C)o1 | – | 2.7
